Among the data in patent US20250388593A1 (MITSUBISHI TANABE PHARMA CORPORATION, priority 2023, published 2025) are Kd values, retold here.

In this experiment the target is CRBN truncate (318-426) (Homo sapiens (Human), UniProt Q96SW2). The experiment is described as follows: Measurement of molecular interactions using surface plasmon resonance (SPR), Biacore T200. The format is binding. The conditions noted are these: 25° C., immobilized CRBN truncate, upper limit of measurement 200 μM. The procedure, abridged: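 C-terminally Avi-tagged CRBN (318-426) captured on a streptavidin SA chip on a Biacore T200. Running buffer 10 mM HEPES pH 7.5, 150 mM NaCl, 1 mM TCEP, 0.005% Tween 20, 2% DMSO; 60 s contact, 120 s dissociation.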
CRBN truncate (318-426), sequence (Q96SW2 318-426): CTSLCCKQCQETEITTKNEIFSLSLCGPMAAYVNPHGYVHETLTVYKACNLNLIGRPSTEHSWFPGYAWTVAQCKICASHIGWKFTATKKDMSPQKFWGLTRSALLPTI
In the case of `COc1ccnc(N2CCC3(CCCC(=O)NC3=O)C2)c1` (centres unmarked) [Example 125, 2-(4-Methoxy-2-pyridyl)-2,7-diazaspiro [4.6]undecane-6,8-dione], the Kd (commonly the equilibrium constant for the complex coming apart) was at least 100 µM. In the case of `CC(=O)Nc1ccc2nc(N3CCC4(CCCC(=O)NC4=O)C3)sc2c1` (centres unmarked) [Example 87, N-[2-(6,8-dioxo-2,7-diazaspiro[4.6]undecan-2-yl)-1,3-benzothiazol-6-yl]acetamide], the Kd was at least 100 µM. `CC(C)(C)OC(=O)NCCCCCCCc1cn(C2CCCC(=O)NC2=O)nn1` (centres unmarked) [Example 147, tert-Butyl N-[7-[1-(2,7-dioxoazepan-3-yl)triazol-4-yl]heptyl]carbamate]: the Kd was at least 100 µM. As for `Cn1c(=O)n(C2CCCC(=O)NC2=O)c(=O)c2ccc(CCC(=O)OC(C)(C)C)cc21` (centres unmarked) [Example 265, tert-Butyl 3-[3-(2,7-dioxoazepan-3-yl)-1-methyl-2,4-dioxoquinazolin-7-yl]propanoate], the Kd was at least 100 µM. Compound `CC(C)(C)OC(=O)NCCCCCCCn1c(=O)n(C2CCCC(=O)NC2=O)c2ccccc21` (centres unmarked) [Example 198, tert-Butyl N-[7-[3-(2,7-dioxoazepan-3-yl)-2-oxobenzimidazol-1-yl]heptyl] carbamate] gave a Kd of under 50 µM. `Cc1sc2c(c1C)C(c1ccc(Cl)cc1)=N[C@@H](CC(=O)NCCCCCCCCn1ccc3c(N4CC5(CC(=O)N(C6CCC(=O)NC6=O)C5=O)C4)ncnc31)c1nnc(C)n1-2` (stereo partly drawn) [Example 318, 2-[(9S)-7-(4-chlorophenyl)-4,5,13-trimethyl-3-thia-1,8,11,12-tetraazatricyclo[8.3.0.02,6]trideca-2(6),4,7,10,12-pentaen-9-yl]-N-[8-[4-[6-(2,6-dioxopiperidin-3-yl)-5,7-dioxo-2,6-diazaspiro[3.4]octan-2-yl]pyrrolo[2,3-d]pyrimidin-7-yl]octyl]acetamide] showed a Kd of under 50 µM. In turn, `O=C1CCCC2(CCCN(C(=O)c3ccccc3)C2)C(=O)N1` (centres unmarked) [Example 104, 2-Benzoyl-2,8-diazaspiro [5.6]dodecane-7,9-dione] gave a Kd of at least 100 µM.

As to `CC(C)(C)OC(=O)CCCCCNc1ccc(C(=O)N2CCC3(CCCC(=O)NC3=O)C2)cc1` (centres unmarked) [Example 300, tert-Butyl 6-[4-(6,8-dioxo-2,7-diazaspiro[4.6]undecane-2-carbonyl)anilino]hexanoate], the Kd is under 50 µM. `CCOC(=O)c1ccc2nc(N3CCC4(CCCC(=O)NC4=O)C3)sc2c1` (centres unmarked) [Example 73, Ethyl 2-(6,8-dioxo-2,7-diazaspiro[4.6]undecane-2-yl)-1,3-benzothiazole-6-carboxylate] returned a Kd of under 50 µM. Compound `CC(C)(C)OC(=O)NCCCCCCCCn1ccc2c(N3CCC4(CCCC(=O)NC4=O)C3)ncnc21` (centres unmarked) [Example 186, tert-Butyl N-[8-[4-(6,8-dioxo-2,7-diazaspiro[4.6]undecan-2-yl)pyrrolo[2,3-d]pyrimidin-7-yl]octyl]carbamate] yielded an equilibrium dissociation constant (Kd) of 50 to 100 µM.

`CC(C)(C)OC(=O)N1CCc2c(ncnc2N2CCC3(CCCC(=O)NC3=O)C2)C1` (centres unmarked) [Example 190, tert-Butyl 4-(6,8-dioxo-2,7-diazaspiro[4.6]undecan-2-yl)-6,8-dihydro-5H-pyrido[3,4-d]pyrimidine-7-carboxylate]: the Kd is at least 100 µM. Compound `CC(C)(C)OC(=O)NCCCCCCCCN1CC2(CC(=O)N(C3CCC(=O)NC3=O)C2=O)C1` (centres unmarked) [Example 51, tert-Butyl N-[8-[6-(2,6-dioxopiperidin-3-yl)-5,7-dioxo-2,6-diazaspiro[3.4]octan-2-yl]octyl]carbamate] came in with a Kd of at least 100 µM. To `Cn1c(=O)n(C2CCCC(=O)NC2=O)c2cccc(CCCCC(=O)OC(C)(C)C)c21` (centres unmarked) [Example 214, tert-Butyl 5-[1-(2,7-dioxoazepan-3-yl)-3-methyl-2-oxobenzimidazol-4-yl]pentanoate] belongs 50 to 100 µM. Take `CC(C)(C)OC(=O)Cn1c(=O)c(=O)n(C2CCCC(=O)NC2=O)c2ccccc21` (centres unmarked) [Example 275, tert-Butyl 2-[4-(2,7-dioxoazepan-3-yl)-2,3-dioxoquinoxalin-1-yl]acetate]: the Kd was at least 100 µM. `Cc1sc2c(c1C)C(c1ccc(Cl)cc1)=N[C@@H](CC(=O)NCCCCCCCCNC(=O)c1ccc(OC3CCCC(=O)NC3=O)nc1)c1nnc(C)n1-2` (stereo partly drawn) [Example 338, N-[8-[[2-[(9S)-7-(4-chlorophenyl)-4,5,13-trimethyl-3-thia-1,8,11,12-tetraazatricyclo[8.3.0.02,6]trideca-2(6),4,7,10,12-pentaen-9-yl]acetyl]amino]octyl]-6-(2,7-dioxoazepan-3-yl)oxypyridine-3-carboxamide] displayed a Kd of under 50 µM. Then `Cc1sc2c(c1C)C(c1ccc(Cl)cc1)=N[C@@H](CC(=O)NCCCCCCCc1cn(C3CCCC(=O)NC3=O)nn1)c1nnc(C)n1-2` (stereo partly drawn) [Example 310, 2-[(9S)-7-(4-chlorophenyl)-4,5,13-trimethyl-3-thia-1,8,11,12-tetraazatricyclo[8.3.0.02,6]trideca-2(6),4,7,10,12-pentaen-9-yl]-N-[7-[1-(2,7-dioxoazepan-3-yl)triazol-4-yl]heptyl]acetamide], with at least 100 µM.

For the compound `CC(C)(C)OC(=O)CN1CC2(CC(=O)N(C3CCC(=O)NC3=O)C2=O)C1` (centres unmarked) [Example 48, tert-Butyl 2-[6-(2,6-dioxopiperidin-3-yl)-5,7-dioxo-2,6-diazaspiro[3.4]octan-2-yl]acetate], the Kd was at least 100 µM. In turn, `Cc1sc2c(c1C)C(c1ccc(Cl)cc1)=N[C@@H](CC(=O)NCCCCCCCCNC(=O)/C=C/c1cccc3c1N(C)C(=O)C3(C)N1C=CCC(=O)NC1=O)c1nnc(C)n1-2` (stereo partly drawn) [Example 348, (E)-N-[8-[[2-[(9S)-7-(4-chlorophenyl)-4,5,13-trimethyl-3-thia-1,8,11,12-tetrazatricyclo[8.3.0.02,6]trideca-2(6),4,7,10,12-pentaen-9-yl]acetyl]amino]octyl]-3-[3-(2,4-dioxo-5H-1,3-diazepin-1-yl)-1,3-dimethyl-2-oxoindolin-7-yl]prop-2-enamide] came in with a Kd of under 50 µM. As for `Cn1ncc2c(N3CCC4(CCCC(=O)NC4=O)C3)ncnc21` (centres unmarked) [Example 39, 2-(1-methylpyrazolo[3,4-d]pyrimidin-4-yl)-2,7-diazaspiro[4.6]undecane-6,8-dione], the Kd was at least 100 µM.

On to `CC(C)(C)OC(=O)c1ccc(N2CCCC3(CCCC(=O)NC3=O)CCC2)nc1` [Example 56, tert-Butyl 6-(1,3-dioxo-2,11-diazaspiro [6.7]tetradecan-11-yl) pyridine-3-carboxylate], for which the Kd fell in the range of 50 to 100 µM. For the compound `CC(C)(C)OC(=O)N1CCC(c2cnc(N3CCC4(CCCC(=O)NC4=O)C3)nc2)CC1` (centres unmarked) [Example 168-2, tert-Butyl 4-[2-(6,8-dioxo-2,7-diazaspiro [4.6]undecan-2-yl)pyrimidin-5-yl]piperidine-1-carboxylate], the Kd is under 50 µM. Turning to `CC(C)(C)OC(=O)NCCCCCCCn1c(=O)n(C2CCCC(=O)NC2=O)c2ncccc21` (centres unmarked) [Example 201-2], the Kd was at least 100 µM. In the case of `Cc1ccc(NC(=O)NCc2ccccc2C(=O)N2CCC3(CCCC(=O)NC3=O)C2)cc1Cl` (centres unmarked) [Example 156, 1-(3-Chloro-4-methylphenyl)-3-[[2-(6,8-dioxo-2,7-diazaspiro[4.6]undecane-2-carbonyl)phenyl]methyl]urea], the Kd is at least 100 µM. `COC(=O)c1cccc(S(=O)(=O)N(C)C2CCCC(=O)NC2=O)c1` (centres unmarked) [Example 11, Methyl 3-[(2,7-dioxoazepan-3-yl)-methylsulfamoyl]benzoate]: the Kd is at least 100 µM. In turn, `CN(C(=O)c1cccc(-c2ccccc2)c1)C1CCCC(=O)NC1=O` (centres unmarked) [Example 20, N-(2,7-Dioxoazepan-3-yl)-N-methyl-3-phenylbenzamide] had a Kd of at least 100 µM. Compound `Cc1sc2c(c1C)C(c1ccc(Cl)cc1)=N[C@@H](CC(=O)NCCCCCCCNC(=O)Cn1c(=O)c(=O)n(C3CCCC(=O)NC3=O)c3ccccc31)c1nnc(C)n1-2` (stereo partly drawn) [Example 350, 2-[(9S)-7-(4-chlorophenyl)-4,5,13-trimethyl-3-thia-1,8,11,12-tetraazatricyclo[8.3.0.02,6]trideca-2(6),4,7,10,12-pentaen-9-yl]-N-[7-[[2-[4-(2,7-dioxoazepan-3-yl)-2,3-dioxo-quinoxalin-1-yl]acetyl]amino]heptyl]acetamide] returned a Kd of under 50 µM.

Compound `Nc1ccc2nc(N3CCC4(CCCC(=O)NC4=O)C3)sc2c1` (centres unmarked) [Example 85, 2-(6-Amino-1,3-benzothiazol-2-yl)-2,7-diazaspiro[4.6]undecane-6,8-dione] came in with a Kd of 50 to 100 µM.

With `CN(C1CCCC(=O)NC1=O)S(=O)(=O)c1ccc(CNC(=O)OC(C)(C)C)cc1` (centres unmarked) [Example 27, tert-Butyl N-[[4-[(2,7-dioxoazepan-3-yl)-methylsulfamoyl]phenyl]methyl]carbamate], the Kd was at least 100 µM. `CC(C)(C)OC(=O)c1cnc(N2CCC3(CCCC(=O)NC3=O)C2)s1` (centres unmarked) [Example 95, tert-Butyl 2-(6,8-dioxo-2,7-diazaspiro [4.6]undecan-2-yl)-1,3-thiazole-5-carboxylate] showed a Kd of at least 100 µM. Then `Cn1c(=O)c(=O)n(C2CCCC(=O)NC2=O)c2ccccc21` (centres unmarked) [Example 259, 1-(2,7-Dioxoazepan-3-yl)-4-methylquinoxaline-2,3-dione], with at least 100 µM; and `CC(C)(C)OC(=O)NCCCCCCc1ccc(C(=O)N2CCC3(CCCC(=O)NC3=O)C2)cc1Cl` (centres unmarked) [Example 160, tert-Butyl N-[6-[2-chloro-4-(6,8-dioxo-2,7-diazaspiro[4.6]undecane-2-carbonyl)phenyl]hexyl]carbamate], with 50 to 100 µM; and `O=C1CCCC(n2c(=O)ccc3cc(Br)ccc32)C(=O)N1` (centres unmarked) [Example 257, 3-(6-Bromo-2-oxoquinolin-1-yl)azepane-2,7-dione], with at least 100 µM.
